The values below come from PubChem BioAssay (NCI).

Test systems include NCI-H522 lung; SF-539 CNS; LOX IMVI melanoma; HOP-92 NSCLC; SW-620 colon; DU-145 prostate; SK-MEL-28 melanoma; OVCAR-4 ovarian; BT-549 breast; A549 NSCLC.
Common to all, as to assay: DTP human tumour cell line panel, 48 h

Several values for one entry are separate records, joined by “and”; a condition that tells them apart may be missing. Equal entries are not always repeated.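 96-well plates; 48 h exposure; 5 concentrations. Endpoints by linear interpolation between flanking doses. Not reached: highest tested concentration assigned. GI50 is the concentration that inhibits growth by half. TGI: concentration producing complete growth inhibition.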

A word on the TGI: it is the concentration at which net growth stops. A low value points to more potent growth arrest. For `COc1cc(/C=C2\N=C(c3ccccc3)N(c3cc4cc(Sc5ccccc5)ccc4[nH]3)C2=O)ccc1O`, the TGI in the test on NCI-H522 lung, in the test with SF-539 CNS, in the test with LOX IMVI melanoma, with HOP-92 NSCLC, in the test on SW-620 colon and with DU-145 prostate was greater than 50 µM in each case. For the same molecule, the TGI with SK-MEL-28 melanoma, in the test with OVCAR-4 ovarian, with BT-549 breast and with A549 NSCLC was greater than 50 µM in each case.

On to `CC1(C)CC(=O)C2=C(C1)NC(=S)C(C#N)C2c1ccccc1` (stereo unspecified), for which the TGI in the test on NCI-H522 lung, with SF-539 CNS, with LOX IMVI melanoma, in the test on HOP-92 NSCLC, in the test with SW-620 colon and with DU-145 prostate was greater than 100 µM each time. The TGI with SK-MEL-28 melanoma, with OVCAR-4 ovarian, in the test on BT-549 breast and in the test on A549 NSCLC was greater than 100 µM throughout.

Take `Cc1oc(N)c(S(=O)(=O)/C(C#N)=C/c2ccccc2[N+](=O)[O-])c1C`: the TGI in the test on NCI-H522 lung was 41 µM; with SF-539 CNS, 61.4 µM; with LOX IMVI melanoma, 28.5 µM; with HOP-92 NSCLC, greater than 100 µM; in the test on SW-620 colon, 63.1 µM; with DU-145 prostate it was greater than 100 µM. Besides, the concentration for total growth inhibition (TGI) in the test with SK-MEL-28 melanoma was 64.2 µM; with OVCAR-4 ovarian it was greater than 100 µM; in the test on BT-549 breast it was 48.2 µM; with A549 NSCLC, 59.7 µM.

As for `C#CCn1c(I)cc2c(c1=O)COC(=O)[C@]2(O)CC`, the TGI in the test with NCI-H522 lung, with SF-539 CNS, with LOX IMVI melanoma, in the test with HOP-92 NSCLC, with SW-620 colon and in the test with DU-145 prostate was greater than 100 µM in each case. The TGI in the test on SK-MEL-28 melanoma, with OVCAR-4 ovarian, in the test with BT-549 breast and in the test with A549 NSCLC was greater than 100 µM each time.

Take `CC(C)(C)c1cc(C(C)(C)C)c(SC2OC(CO)C(O)C(O)C2O)c(O)c1O` (stereo unspecified): the total growth inhibition concentration (TGI) is 20.9 µM in the test on NCI-H522 lung; 12.7 µM in the test with SF-539 CNS; 22.9 µM in the test on LOX IMVI melanoma; greater than 42.6 µM in the test with HOP-92 NSCLC; 49.9 µM with SW-620 colon; 31.8 µM in the test on DU-145 prostate. The TGI in the test with SK-MEL-28 melanoma was 70.5 µM; in the test on OVCAR-4 ovarian, greater than 61.9 µM; in the test with BT-549 breast it was 27 µM; in the test with A549 NSCLC, 21.3 µM.

For orientation: GI50 means the concentration that inhibits growth by half. Take `CC(C)=CC(=O)OC1C2C(C)=CC(=O)C(O)C2(C)C2C3(O)OCC24C(CC(=O)OC14)C(C)C3O` (stereo unspecified): the GI50 in the test on NCI-H522 lung is 0.02 µM; in the test on SF-539 CNS it was 0.02 µM; in the test with LOX IMVI melanoma it was 0.0298 µM; in the test with HOP-92 NSCLC, 0.0207 µM; in the test with SW-620 colon, 0.0108 µM and 0.0265 µM; in the test on DU-145 prostate it was 0.0225 µM. Further, the GI50 is 0.02 µM with SK-MEL-28 melanoma; 0.02 µM in the test with OVCAR-4 ovarian; 0.0545 µM and 0.178 µM in the test with A549 NSCLC. Moreover, the TGI is 0.011 µM and 0.0215 µM in the test on NCI-H522 lung; 0.0132 µM and 0.0415 µM in the test with SF-539 CNS; 0.0465 µM and 0.0367 µM in the test with HOP-92 NSCLC; 0.0173 µM and 0.141 µM with DU-145 prostate; 0.0175 µM and 0.0363 µM in the test on SK-MEL-28 melanoma; 0.00846 µM in the test on BT-549 breast. Further, the TGI in the test on A549 NSCLC is 0.598 µM and 1.55 µM and 2.22 µM.

On to `O=[N+]([O-])/C(Cl)=C(\NCCO)C(Cl)=C(Cl)Cl`, for which the TGI was 53 µM with NCI-H522 lung; greater than 100 µM with SF-539 CNS; greater than 100 µM with LOX IMVI melanoma; greater than 100 µM in the test with HOP-92 NSCLC; 77.4 µM in the test with SW-620 colon; greater than 100 µM in the test on DU-145 prostate. Moreover, the TGI with SK-MEL-28 melanoma, in the test with OVCAR-4 ovarian, with BT-549 breast and with A549 NSCLC was greater than 100 µM throughout.

As for `Nc1ccnc2c1ncn2[C@H]1C[C@H](O)[C@@H](CO)O1`, the TGI with NCI-H522 lung, in the test with SF-539 CNS, in the test on LOX IMVI melanoma, in the test with HOP-92 NSCLC, in the test on SW-620 colon and in the test with DU-145 prostate was greater than 100 µM in each case. For the same molecule, the concentration for total growth inhibition (TGI) in the test on SK-MEL-28 melanoma, in the test with OVCAR-4 ovarian, in the test with BT-549 breast and in the test on A549 NSCLC was greater than 100 µM each time.

For the molecule `CC(Cl)(CCC(Cl)C(C)(C)Cl)C(=O)CBr` (stereo unspecified), the TGI with NCI-H522 lung turned out to be 3.94 µM; with SF-539 CNS, 29.8 µM; in the test with LOX IMVI melanoma it was 5.76 µM; in the test with HOP-92 NSCLC, 20.8 µM; in the test on SW-620 colon, 4.96 µM; in the test on DU-145 prostate, 33.7 µM. In addition, the TGI with SK-MEL-28 melanoma was 31.6 µM; in the test on OVCAR-4 ovarian, 7.46 µM; in the test on BT-549 breast, 27.3 µM; in the test on A549 NSCLC, 43 µM.

As to `COC(=O)CCCc1nc2ccccc2nc1N=Nc1ccccc1`, the TGI was 68.5 µM in the test on NCI-H522 lung; greater than 100 µM in the test on SF-539 CNS; 31.3 µM in the test with LOX IMVI melanoma; greater than 100 µM with HOP-92 NSCLC; greater than 100 µM in the test with SW-620 colon; greater than 100 µM in the test with DU-145 prostate. Moreover, the TGI in the test with SK-MEL-28 melanoma, with OVCAR-4 ovarian, with BT-549 breast and in the test on A549 NSCLC was greater than 100 µM in each case.
